Data from patent US11339161B2, “Triazolo pyridines as modulators of gamma-secretase” (Boehringer Ingelheim International GmbH, priority 2017, dated 2022).
Like-named read-outs stand apart in the source and are kept apart here.

Key:
[1] = molecular target: FGFR1 (Homo sapiens, UniProt P11362); test: Z'-LYTE SelectScreen biochemical kinase assay FGFR1
Source text: (§1) Thermo Fisher Scientific SelectScreen™ Biochemical Kinase Profiling Service Z′-LYTE™ Screening Protocol and Assay Conditions Assay Theory
(§2) The […] biochemical assay employs a fluorescence-based, coupled-enzyme format and is based on the differential sensitivity of phosphorylated and non-phosphorylated peptides to proteolytic cleavage. The peptide substrate is labeled with two fluorophores—one at each end—that make up a FRET pair. In the primary reaction, the kinase transfers the gamma-phosphate of ATP to a single tyrosine, serine or threonine residue in a synthetic FRET-peptide. In the secondary reaction, a site-specific protease recognizes and cleaves non-phosphorylated FRET-peptides. Phosphorylation of FRET-peptides suppresses cleavage by the Development Reagent. Cleavage disrupts FRET between the donor (i.e., coumarin) and acceptor (i.e., fluorescein) fluorophores on the FRET-peptide, whereas uncleaved, phosphorylated FRET-peptides maintain FRET. A ratiometric method, which calculates the ratio (Emission Ratio=Coumarin emission (445 nm)/Fluorescein emission (520 nm)) of donor emission to acceptor emission after excitation of the donor fluorophore at 400 nm, is used to quantitate reaction progress, as shown in the equation below. A significant benefit of this ratiometric method for quantitating reaction progress is the elimination of well-to-well variations in FRET-peptide concentration and signal intensities. As a result, the assay yields very high Z′-factor values (>0.7) at a low percent phosphorylation. Both cleaved and uncleaved FRET-peptides contribute to the fluorescence signals and therefore to the Emission Ratio. The extent of phosphorylation of the FRET-peptide can be calculated from the Emission Ratio. The Emission Ratio will remain low if the FRET-peptide is phosphorylated (i.e., no kinase inhibition) and will be high if the FRET-peptide is non-phosphorylated (i.e., kinase inhibition).
(§3) The Test Compounds are screened in 1% DMSO (final) in the well. For 10 point titrations, 3-fold serial dilutions are conducted from the starting concentration of the customer's choosing.
(§4) All Peptide/Kinase Mixtures are diluted to a 2× working concentration in the appropriate Kinase Buffer (see section Kinase Specific Assay Conditions for a complete description).
(§5) All ATP Solutions are diluted to a 4× working concentration in Kinase Buffer (50 mM HEPES pH 7.5, 0.01% BRIJ-35, 10 mM MgCl2, 1 mM EGTA). ATP Km apparent is previously determined using a Z″-LYTE assay.
(§6) The Development Reagent is diluted in Development Buffer (see section Kinase-Specific Assay Conditions—Direct and Cascade for a complete description).
(§7) Bar-coded Corning, low volume NBS, black 384-well plate (Corning Cat. #4514) • 1. 100 nL—100× Test Compound in 100% DMSO • 2. 2.4 μL—Kinase buffer • 3. 5 μL—2× Peptide/Kinase Mixture • 4. 2.5 μL—4×ATP Solution • 5. 30—second plate shake • 6. 60—minute Kinase Reaction incubation at room temperature • 7. 5 μL—Development Reagent Solution • 8. 30—second plate shake • 9. 60—minute Development Reaction incubation at room temperature • 10. Read on fluorescence plate reader and analyze the data Z′-LYTE Assay Controls
(§8) SelectScreen Kinase Profiling Service uses XLfit from IDBS. The dose response curve is curve fit to model number 205 (sigmoidal dose-response model).
The 2×FGFR1/Tyr 04 mixture is prepared in 50 mM HEPES pH 7.5, 0.01% BRIJ-35, 10 mM MgCl2, 4 mM MnCl2, 1 mM EGTA, 2 mM DTT. The final 10 μL Kinase Reaction consists of 0.44-2.45 ng FGFR1 and 2 μM Tyr 04 in 50 mM HEPES pH 7.5, 0.01% BRIJ-35, 10 mM MgCl2, 2 mM MnCl2, 1 mM EGTA, 1 mM DTT. After the 1 hour Kinase Reaction incubation, 5 μL of a 1:64 dilution of Development Reagent B is added.

[2] = molecular target: T1, MAP4K2 (GCK) (Homo sapiens, UniProt Q12851); test: Z'-LYTE SelectScreen biochemical kinase assay MAP4K2 (GCK)
T1 sequence (Q12851 1-820): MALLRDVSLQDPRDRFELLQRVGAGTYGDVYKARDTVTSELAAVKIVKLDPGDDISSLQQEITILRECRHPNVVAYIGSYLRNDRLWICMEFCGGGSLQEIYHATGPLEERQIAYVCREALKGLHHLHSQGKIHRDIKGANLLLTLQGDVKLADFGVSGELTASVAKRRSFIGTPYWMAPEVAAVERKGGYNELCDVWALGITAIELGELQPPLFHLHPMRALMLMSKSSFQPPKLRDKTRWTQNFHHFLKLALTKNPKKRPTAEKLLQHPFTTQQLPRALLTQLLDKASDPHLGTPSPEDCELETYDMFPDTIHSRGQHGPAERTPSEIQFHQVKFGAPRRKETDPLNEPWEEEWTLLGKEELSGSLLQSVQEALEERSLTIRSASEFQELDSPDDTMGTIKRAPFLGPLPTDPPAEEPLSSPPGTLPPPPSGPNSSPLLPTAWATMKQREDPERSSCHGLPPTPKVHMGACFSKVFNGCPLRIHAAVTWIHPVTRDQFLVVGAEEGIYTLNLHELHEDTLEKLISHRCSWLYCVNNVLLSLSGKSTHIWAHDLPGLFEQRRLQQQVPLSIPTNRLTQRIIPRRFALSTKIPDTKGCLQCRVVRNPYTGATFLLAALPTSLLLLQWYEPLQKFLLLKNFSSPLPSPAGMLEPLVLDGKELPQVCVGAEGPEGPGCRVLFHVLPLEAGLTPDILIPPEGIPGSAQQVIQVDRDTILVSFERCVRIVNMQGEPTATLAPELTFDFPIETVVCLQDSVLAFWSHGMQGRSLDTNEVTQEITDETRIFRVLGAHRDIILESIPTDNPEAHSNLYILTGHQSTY
Source text: as §1, §2, §3, §4, §5, §6, §7, §8
The 2×MAP4K2 (GCK)/Ser/Thr 07 mixture is prepared in 50 mM HEPES pH 7.5, 0.01% BRIJ-35, 10 mM MgCl2, 1 mM EGTA. The final 10 μL Kinase Reaction consists of 0.11-3 ng MAP4K2 (GCK) and 2 μM Ser/Thr 07 in 50 mM HEPES pH 7.5, 0.01% BRIJ-35, 10 mM MgCl2, 1 mM EGTA. After the 1 hour Kinase Reaction incubation, 5 μL of a 1:45000 dilution of Development Reagent A is added.

[3] = 10 μmolar compound concentration, ATP at Km app, read-out: FGFR1 inhibition
[4] = read-out: % Inhibition mean FGFR1
[5] = 10 μmolar compound concentration, ATP at Km app, read-out: MAP4K2 (GCK) inhibition
[6] = read-out: % Inhibition mean MAP4K2 (GCK)

Sequence of FGFR1 (P11362 22-822): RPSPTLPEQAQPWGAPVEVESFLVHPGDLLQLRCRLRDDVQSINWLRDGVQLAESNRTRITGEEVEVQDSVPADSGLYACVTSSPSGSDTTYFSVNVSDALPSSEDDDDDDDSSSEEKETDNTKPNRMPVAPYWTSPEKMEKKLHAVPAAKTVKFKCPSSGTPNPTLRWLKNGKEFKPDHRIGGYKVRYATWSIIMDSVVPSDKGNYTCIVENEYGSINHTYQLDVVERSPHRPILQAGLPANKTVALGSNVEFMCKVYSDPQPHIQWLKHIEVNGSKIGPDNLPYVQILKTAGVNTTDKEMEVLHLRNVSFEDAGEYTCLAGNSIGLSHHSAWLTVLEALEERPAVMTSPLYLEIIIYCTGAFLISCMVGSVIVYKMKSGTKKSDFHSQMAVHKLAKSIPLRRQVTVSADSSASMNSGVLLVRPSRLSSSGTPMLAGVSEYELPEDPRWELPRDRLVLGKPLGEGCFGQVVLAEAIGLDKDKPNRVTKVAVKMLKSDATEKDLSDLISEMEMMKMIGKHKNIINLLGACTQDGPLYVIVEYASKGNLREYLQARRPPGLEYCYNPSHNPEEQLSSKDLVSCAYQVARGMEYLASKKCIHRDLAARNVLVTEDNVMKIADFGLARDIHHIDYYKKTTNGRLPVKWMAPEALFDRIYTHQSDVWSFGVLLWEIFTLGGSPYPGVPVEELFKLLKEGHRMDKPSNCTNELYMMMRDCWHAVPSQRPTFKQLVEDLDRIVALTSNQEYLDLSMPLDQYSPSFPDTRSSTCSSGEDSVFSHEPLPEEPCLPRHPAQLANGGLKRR

Row | Compound | inhibition at 10 µM [1, 3] | inhibition at 10 µM [1, 4] | inhibition at 10 µM [2, 5] | inhibition at 10 µM [2, 6]
1 | CCc1nn(C)c2c1CCC(Nc1nc3c(-c4ccc(F)cc4C)cccn3n1)C2 (stereo not drawn) [Example 54, (3-Ethyl-1-methyl-4,5,6,7-tetrahydro-1H-indazol-6-yl)-[8-(4-fluoro-2-methyl-phenyl)-[1,2,4]triazolo[1,5-a]pyridine-2-yl]-amine] | < 40% | -3% | < 40% | 27%
2 | CCn1ncc2c1CCC(Nc1nc3c(-c4ccc(F)cc4)cccn3n1)C2 (stereo not drawn) [Example 55, (1-Ethyl-4,5,6,7-tetrahydro-1H-indazol-5-yl)-[8-(4-fluoro-phenyl)-[1,2,4]triazolo[1,5-a]pyridine-2-yl]-amine] | < 40% | 12% | < 40% | 30%
3 | CCn1ncc2c1CCC(Nc1nc3c(-c4ccccc4C)cccn3n1)C2 (stereo not drawn) [Example 56, (1-Ethyl-4,5,6,7-tetrahydro-1H-indazol-5-yl)-[8-(2-methyl-phenyl)-[1,2,4]triazolo[1,5-a]pyridine-2-yl]-amine] | < 40% | 20% | < 40% | 16%
4 | CCn1ncc2c1CCC(Nc1nc3c(-c4ccccc4)cccn3n1)C2 (stereo not drawn) [Example 57, (1-Ethyl-4,5,6,7-tetrahydro-1H-indazol-5-yl)-(8-phenyl-[1,2,4]triazolo[1,5-a]pyridine-2-yl)-amine] | < 40% | 23% | < 40% | 13%
5 | CCn1ncc2c1CCC(Nc1nc3c(-c4cccc(Cl)c4)cccn3n1)C2 (stereo not drawn) [Example 59, [8-(3-Chloro-phenyl)-[1,2,4]triazolo[1,5-a]pyridine-2-yl]-(1-ethyl-4,5,6,7-tetrahydro-1H-indazol-5-yl)-amine] | < 40% | 22% | < 40% | 22%
6 | CCn1ncc2c1CCC(Nc1nc3c(-c4cccnc4)cccn3n1)C2 (stereo not drawn) [Example 63, (1-Ethyl-4,5,6,7-tetrahydro-1H-indazol-5-yl)-(8-pyridin-3-yl-[1,2,4]triazolo[1,5-a]pyridine-2-yl)-amine] | < 40% | 18% | < 40% | 14%
7 | CCn1ncc2c1CCC(Nc1nc3c(-c4ccc(C)nc4)cccn3n1)C2 (stereo not drawn) [Example 67, (1-Ethyl-4,5,6,7-tetrahydro-1H-indazol-5-yl)-[8-(6-methyl-pyridin-3-yl)-[1,2,4]triazolo[1,5-a]pyridine-2-yl]-amine] | < 40% | 21% | < 40% | 14%
8 | CCn1ncc2c1CCC(Nc1nc3c(-c4cnccc4OC)cccn3n1)C2 (stereo not drawn) [Example 68, (1-Ethyl-4,5,6,7-tetrahydro-1H-indazol-5-yl)-[8-(4-methoxy-pyridin-3-yl)-[1,2,4]triazolo[1,5-a]pyridine-2-yl]-amine] | < 40% | 23% | < 40% | 28%
9 | CCn1ncc2c1CCC(Nc1nc3c(-c4cccnc4OC)cccn3n1)C2 (stereo not drawn) [Example 69, (1-Ethyl-4,5,6,7-tetrahydro-1H-indazol-5-yl)-[8-(2-methoxy-pyridin-3-yl)-[1,2,4]triazolo[1,5-a]pyridine-2-yl]-amine] | < 40% | 20% | < 40% | 9%
10 | CCn1ncc2c1CCC(Nc1nc3c(-c4cncc(OC)c4)cccn3n1)C2 (stereo not drawn) [Example 70, (1-Ethyl-4,5,6,7-tetrahydro-1H-indazol-5-yl)-[8-(5-methoxy-pyridin-3-yl)-[1,2,4]triazolo[1,5-a]pyridine-2-yl]-amine] | < 40% | 18% | < 40% | 7%
11 | CCn1ncc2c1CCC(Nc1nc3c(-c4ccc(OC)nc4)cccn3n1)C2 (stereo not drawn) [Example 71, (1-Ethyl-4,5,6,7-tetrahydro-1H-indazol-5-yl)-[8-(6-methoxy-pyridin-3-yl)-[1,2,4]triazolo[1,5-a]pyridine-2-yl]-amine] | < 40% | 19% | < 40% | 26%
12 | CCn1ncc2c1CCC(Nc1nc3c(-c4cncc(Cl)c4)cccn3n1)C2 (stereo not drawn) [Example 73, [8-(5-Chloro-pyridin-3-yl)-[1,2,4]triazolo[1,5-a]pyridine-2-yl]-(1-ethyl-4,5,6,7-tetrahydro-1H-indazol-5-yl)-amine] | < 40% | 32% | 40 to 80% | 49%
13 | CCn1ncc2c1CC[C@@H](Nc1nc3c(-c4ccc(F)cc4C)cccn3n1)C2 [Example R-42, (R)-(1-Ethyl-4,5,6,7-tetrahydro-1H-indazol-5-yl)-[8-(4-fluoro-2-methyl-phenyl)-[1,2,4]triazolo[1,5-a]pyridine-2-yl]-amine] | < 40% | 16% | < 40% | 25%
14 | CCn1ncc2c1CC[C@@H](Nc1nc3c(-c4ccc(F)c(Cl)c4)cccn3n1)C2 [Example R-61, (R)-[8-(3-Chloro-4-fluoro-phenyl)-[1,2,4]triazolo[1,5-a]pyridine-2-yl]-(1-ethyl-4,5,6,7-tetrahydro-1H-indazol-5-yl)-amine] | < 40% | 15% | < 40% | 3%
15 | CCn1ncc2c1CC[C@H](Nc1nc3c(-c4ccc(F)c(Cl)c4)cccn3n1)C2 [Example S-61, (S)-[8-(3-Chloro-4-fluoro-phenyl)-[1,2,4]triazolo[1,5-a]pyridine-2-yl]-(1-ethyl-4,5,6,7-tetrahydro-1H-indazol-5-yl)-amine] | < 40% | 13% | < 40% | 12%
